Data: article PMC7367283, “A PIP2 substitute mediates voltage sensor-pore coupling in KCNQ activation” (Communications Biology, 2020)
Where “and” joins values, the source holds several entries; their conditions need not be identical. Identical values can stand only once.

Test system: guinea pig ventricular myocytes
Test: Action potential recording in ventricular myocytes with moxifloxacin-prolonged (LQT) action potentials
Type: cell-based
Set-up: actional potential duration (APD), Fig. 7h: unit not given here
Conditions: for actional potential duration (APD), Fig. 7h: Moxi-Group, individual cells
Experimental: Fig. 7 Effects of CP1 on IKs and action potentials in cardiomyocytes. a IKs currents in guinea pig ventricular myocytes in the absence and presence of 30 µM CP1 in the whole-cell patch-clamp configuration. Holding potential: −40 mV; testing potentials: −20 to +60 mV with 10-mV increment; returning potential: −20 mV. […] Guinea pig ventricular myocytes were first perfused with 10 µM CP1 and 10 µM chromanol. After APD reached steady state, 10 µM CP1 was constitutively perfused alone. Last, CP1 was washed out for near-full reversal of APD shortening. g Effects of 0.2 µM CP1 on LQT action potentials. To mimic the LQT, 100 µM moxifloxacin was applied 2 h before the treatment of CP1. h Change of action potential duration after application of different [CP1]s (n = 5–7). Tukey–Kramer ANOVA test was used to compare control cells in different CP1 concentration, # is significant at P < 0.05. Unpaired two-tailed Student t tests were used to compare control and moxifloxacin cells at different CP1 concentration: * is significant at P < 0.05.
In ventricular myocytes, the duration and the morphology of action potentials are determined by various ion channels. Mutations in many of these channels and drugs that modify channel functions, such as an increase in inward Na^+ currents or decrease in outward K^+ currents, may lead to a prolonged action potential duration, which results in an inherited or acquired long QT syndrome that predisposes afflicted patients to cardiac arrhythmia. An enhancement of the outward IKs current may be able to counter these mutations or drug effects, and restore the action potential duration to more normal values. […] Next, we used an IKr blocker (Moxifloxacin, Moxi) to prolong action potentials and then applied various concentrations of CP1.
The use of guinea pigs was approved by the Stony Brook University Institutional Animal Care and Use Committee. Single ventricular myocytes were acutely enzymatically isolated from guinea pig heart as previously described. Guinea pigs, weighing 300–500 g, were sacrificed by peritoneal injection of sodium pentobarbitone (1 ml, 390 mg/ml). The isolated cells were stored in KB solution containing (in mM) 83 KCl, 30 K2HPO4, 5 MgSO4, 5 Na pyruvate, 5 β-OH-butyric acid, 20 creatine, 20 taurine, 10 glucose, and 0.5 EGTA, pH 7.2.
Action potentials were recorded with whole-cell patch-clamp recording techniques. Current-clamp configuration was used. Freshly isolated guinea pig cardiac myocytes were placed at 1 Hz with a stimulus of 180-pA amplitude and 10-mS duration. The APD was determined at 90% repolarization. Several minutes were allowed for the APD to reach steady state before data were collected. Typical Tyrode mimic AP Solution for action potential recording was used. The bath solution is composed of (in mM) 140 NaCl, 3 KCl, 1 MgCl2, 1.8 CaCl2, 10 HEPES, and 10 Glucose, pH 7.4. The pipette solution is composed of (in mM) 115 K-aspartic acid, 35 KOH, 3 MgCl2, 10 HEPES, 11 EGTA, 5 Glucose, and 3 MgATP, pH 7.4.

For `O=S(=O)([O-])Oc1c(-c2sc3c(ccc4cccc(Cl)c43)c2OS(=O)(=O)[O-])[nH]c2ccc(Br)cc12.[Na+].[Na+]` [CP1, DISODIUM 5-BROMO-2-[9-CHLORO-3-(SULFONATOOXY) NAPHTHO [1,2-B] THIEN-2-YL]-1H-INDOL-3-YL SULFATE], the action potential duration (0.2 µM CP1, 100 µM moxifloxacin applied 2 h before) was “return the action potential duration back to normal”, the action potential duration (0.6 and 6 µM CP1, moxifloxacin) was “reduced Moxifloxacin-induced action potential prolongation” and the “actional potential duration (APD), Fig. 7h” value (“actional potential duration” for short) (0.2 µM CP1) was 628 and 590 and 655 and 646 and 548 and 586. The “actional potential duration” value (0.6 µM CP1) was 549 and 521 and 579 and 388 and 495 and the “actional potential duration” value (6 µM CP1) was 393 and 380 and 396 and 407 and 426 and 406.
